The values that follow come from patent US4082849A, “Halogenated N-(3,5-dihalophenyl)cyclopropanedicarboximides” (priority 1975, dated 1978).

For test [1], the system named is Rhizoctonia solani.
Experimental: Test for Rhizoctonia solani controlling effect on cucumber
Farm soil was charged into pots of 9 cm in diameter and a soil (10 ml) infected with Rhizoctonia solani was dispersed over the surface of said soil. Each of the test compounds in the form of emulsifiable concentrates was diluted with water to a given concentration, and the dilution was applied into each pot in a proportion of 20 ml per pot. After 2 hours, 10 seeds of cucumber were sowed therein. 5 Days thereafter, the infectious state of the grown seedlings was observed, and the percentage of stand was calculated according to the following equation: [formula]
In test [2] the test system is Botrytis cinerea. The test can be described thus: Test for Botrytis cinerea controlling effect on cucumbers. It is filed as in vivo. Here is the method:
After one day, agar discs (diameter: 5 mm) with Botrytis cinerea were put on the leaves for inoculation. Three days after, the disease severity was observed, and the disease-controlling effect was estimated. Percentage of control was determined by the following procedure. The rate of diseased area on the tested leaf was measured and classified in one of the six infectious indexes (0, 1, 2, 3, 4, 5) according to the undermentioned criteria. The number of leaves corresponding to each infectious index ([NT]5) was determined, and percentage of control was calculated according to the undermentioned equation: […]

Test [3] relates to Sclerotinia sclerotiorum. The test can be described thus: Test for Sclerotinia sclerotiorum controlling effect on cucumbers. Type of test: in vivo. The conditions noted are these: 100 ppm. How it is done:
After one day, Sclerotinia sclerotiorum was inoculated on the surface of the leaf, and the disease severity was observed three days thereafter. The degree of the severity was determined in the following manner. The rate of diseased area on the leaf was measured and classified in one of the six infectious indexes (0, 1, 2, 3, 4, 5) according to the undermentioned criteria. The number of leaves corresponding to each infectious index ([NT]5) was determined, and degree of severity was calculated according to the undermentioned equation: […]

In test [4] the test system is Glomerella cingulata.
Experimental: Test for Glomerella Cingulata controlling effect on grape
An aqueous dilution of the test compound in the form of a wettable powder preparation was applied to berries of grape at a rate of 20 ml per branch. After one day, Glomerella cingulata was inoculated on the surface of the berries immediately after injuring the inoculation site. Three days after inoculation, disease assessment was made. Percentage of control was calculated from the diameter of diseased area according to the following equation: [formula]
A further test deals with Phytophthora infestans. The test can be described thus: microbe, parasite or virus in culture. It is filed as cell-based. The conditions noted are these: read-out: growth inhibiting effect.
The subject of the next test is Rhizopus nigricans. The test can be described thus: Anti-fungal spectrum, agar dilution method. Type of test: cell-based. The conditions noted are these: Rhizopus stolonifer, PSA plate, 28° C, read-out: growth inhibiting effect. On the technique in general: In agar dilution, organisms are placed on agar that contains the substance at set levels.
For the next test, the system named is Pyricularia oryzae. The test can be described thus: microbe, parasite or virus in culture. It is filed as cell-based. The conditions noted are these: read-out: growth inhibiting effect.
The next test relates to Pellicularia sasakii. The test can be described thus: Anti-fungal spectrum, agar dilution method. It is filed as cell-based. The conditions noted are these: read-out: growth inhibiting effect.
Test [5] deals with Botrytis cinerea. The test can be described thus: Anti-fungal spectrum, agar dilution method. Type of test: cell-based. The conditions noted are these: PSA plate, 28° C, read-out: growth inhibiting effect.
Test [6] deals with Sclerotinia sclerotiorum. The test can be described thus: Anti-fungal spectrum, agar dilution method. It is filed as cell-based. The conditions noted are these: PSA plate, 28° C, read-out: growth inhibiting effect.
Test [7] relates to Glomerella cingulata. The test can be described thus: Anti-fungal spectrum, agar dilution method. It is filed as cell-based. The conditions noted are these: Colletotrichum gloeosporioides, PSA plate, 28° C, read-out: growth inhibiting effect.
The subject of test [8] is Rhizoctonia solani. The test can be described thus: Anti-fungal spectrum, agar dilution method. Type of test: cell-based. The conditions noted are these: PSA plate, 28° C, read-out: growth inhibiting effect.
A further test relates to Giberella fujikuroi. The test can be described thus: Anti-fungal spectrum, agar dilution method. Type of test: cell-based. The conditions noted are these: read-out: growth inhibiting effect.
The next test concerns Corticium rolfsii. The test can be described thus: Anti-fungal spectrum, agar dilution method. It is filed as cell-based. The conditions noted are these: Agroathelia rolfsii, PSA plate, 28° C, read-out: growth inhibiting effect.
A further test relates to Verticillium albo-atrum. The test can be described thus: Anti-fungal spectrum, agar dilution method. Type of test: cell-based. The conditions noted are these: PSA plate, 28° C, read-out: growth inhibiting effect.
Test [9] relates to Fusarium oxysporum f. lycopersici. The test can be described thus: Anti-fungal spectrum, agar dilution method. Type of test: cell-based. The conditions noted are these: PSA plate, 28° C, read-out: growth inhibiting effect.
The test system of test [10] is Colletotrichum lagenarium. The test can be described thus: Anti-fungal spectrum, agar dilution method. The conditions noted are these: Colletotrichum orbiculare, PSA plate, 28° C, read-out: growth inhibiting effect. It is filed as cell-based.
Test [11] deals with Aspergillus niger ATCC 6275. The test can be described thus: Anti-fungal spectrum, agar dilution method. Type of test: cell-based. The conditions noted are these: Aspergillus niger ATCC 6275, 50 ppm, PSA plate, 28° C.
The subject of test [12] is Chaetomium globosum ATCC 6205. The test can be described thus: Anti-fungal spectrum, agar dilution method. It is filed as cell-based. The conditions noted are these: Chaetomium globosum ATCC 6205, 50 ppm, PSA plate, 28° C.
Where [13] appears, read: Pellicularia sasakii, 50 ppm, PSA plate, 28° C.
The mark [14] stands for this setting: Giberella fujikuroi, 50 ppm, PSA plate, 28° C.

Where two headings read alike, the source gives them in different places.

Regarding `O=[N+]([O-])c1c(Cl)c(Cl)c(Cl)c(Cl)c1Cl` [PCNB, reference compound], the Percentage of stand in the test with Rhizoctonia solani [1] (250 ppm) is on record as 93.4%.
With `CC12CC1(Br)C(=O)N(c1cc(Cl)cc(Cl)c1)C2=O` (stereo not drawn) [Compound 5], the Percentage of control was 95% in the test with Botrytis cinerea [2] (50 ppm) and 100% with Botrytis cinerea [2] (200 ppm). In addition, the Degree of severity in the test with Sclerotinia sclerotiorum [3] came out at 100%.
In turn, Mancozeb [reference compound] returned a Percentage of control in the test with Glomerella cingulata [4] (140 ppm of ingredient) of 65.0%.
`O=C1C2CC2(Cl)C(=O)N1c1cc(Cl)cc(Cl)c1` (stereo not drawn) [Compound 2]: the Percentage of control in the test with Botrytis cinerea [2] (50 ppm), in the test on Botrytis cinerea [2] (200 ppm) and with Glomerella cingulata [4] (250 ppm of ingredient) was 100% each time. The Degree of severity in the test on Sclerotinia sclerotiorum [3] came out at 100%. Further, the Percentage of stand in the test on Rhizoctonia solani [1] (250 ppm) and in the test with Rhizoctonia solani [1] (500 ppm) was 100% in each case.
On to `CCCCNC(=O)n1c(NC(=O)OC)nc2ccccc21` [Methyl-1-(butylcarbamoyl)-2-benzimidazole carbamate, reference compound], for which the Percentage of control amounted to 90% in the test on Botrytis cinerea [2] (50 ppm) and 100% in the test on Botrytis cinerea [2] (200 ppm). In addition, the Degree of severity in the test with Sclerotinia sclerotiorum [3] is recorded as 35%.
In the test with Sclerotinia sclerotiorum [3], `CC12CC1(Cl)C(=O)N(c1cc(Cl)cc(Cl)c1)C2=O` (stereo not drawn) [Compound 1, N-(3,5-dichlorophenyl)-α-chloro-β-methylcyclopropanedicarboximide] showed a Degree of severity of 100%. The inhibition at 50 ppm in the test with Phytophthora infestans came to 100%; in the test on Rhizopus nigricans it was 100%; with Pyricularia oryzae it was 90%; in the test on Pellicularia sasakii (setting [13]), 100%; in the test on Botrytis cinerea [5], 100%; with Sclerotinia sclerotiorum [6], 100%. In addition, the inhibition at 50 ppm (in the test on Glomerella cingulata [7]; with Rhizoctonia solani [8]; in the test on Giberella fujikuroi (setting [14]); in the test with Corticium rolfsii; in the test on Verticillium albo-atrum; in test [9]) was 100% each time. Besides, the inhibition at 50 ppm in [10] was 100%. In addition, the growth inhibiting effect entry in [11] and in test [12] was “A (no growth)” each time. In the test with Glomerella cingulata [4] (250 ppm of ingredient), this compound displayed a Percentage of control of 100%. In addition, the Percentage of stand with Rhizoctonia solani [1] (250 ppm) and with Rhizoctonia solani [1] (500 ppm) was 100% in each case.
On to `CC12CC1(Cl)C(=O)N(c1cc(Br)cc(Br)c1)C2=O` (stereo not drawn) [Compound 3, N-(3,5-dibromophenyl)-α-chloro-β-methylcyclopropanedicarboximide], for which the Percentage of control with Botrytis cinerea [2] (50 ppm) turned out to be 92%; in the test on Botrytis cinerea [2] (200 ppm), 100%; with Glomerella cingulata [4] (250 ppm of ingredient), 78.5%. The same compound came in with a Degree of severity in the test with Sclerotinia sclerotiorum [3] of 94%. Also, the inhibition at 50 ppm with Phytophthora infestans was determined as 100%; in the test on Rhizopus nigricans it was 90%; in the test with Pyricularia oryzae it was 90%; in the test on Pellicularia sasakii (setting [13]), 100%; in the test with Botrytis cinerea [5] it was 100%; in the test on Sclerotinia sclerotiorum [6] it was 100%. Moreover, the inhibition at 50 ppm (with Glomerella cingulata [7]; in the test with Rhizoctonia solani [8]; in the test with Giberella fujikuroi (setting [14]); with Corticium rolfsii; in the test with Verticillium albo-atrum; in test [9]) was 100% throughout. For the same compound, in [10], the inhibition at 50 ppm was 90%. In addition, the growth inhibiting effect entry in test [11] and in test [12] was “A (no growth)” in each case.
Take `CC12CC1(C)C(=O)N(c1cc(Cl)cc(Cl)c1)C2=O` (stereo not drawn) [reference compound]: the inhibition at 50 ppm in the test with Phytophthora infestans was 0%; in the test with Rhizopus nigricans, 0%; in the test with Pyricularia oryzae it was 0%; in the test with Pellicularia sasakii it was 100%; in the test with Botrytis cinerea [5] it was 100%; in the test on Sclerotinia sclerotiorum [6] it was 100%. The inhibition at 50 ppm with Glomerella cingulata [7] was 30%; in the test on Rhizoctonia solani [8], 90%; with Giberella fujikuroi, 0%; with Corticium rolfsii, 0%; in the test on Verticillium albo-atrum, 5%; in test [9], 70%. Besides, in test [10], the inhibition at 50 ppm came to 0%. Moreover, the growth inhibiting effect entry in [11] and in [12] was “E (5 % inhibition)” each time. In the test with Glomerella cingulata [4] (250 ppm of ingredient), this compound had a Percentage of control of 6.5%. In addition, the Percentage of stand with Rhizoctonia solani [1] (250 ppm) was 0%; in the test on Rhizoctonia solani [1] (500 ppm) it was 21.3%.
As to `CC1C2C(=O)N(c3cc(Cl)cc(Cl)c3)C(=O)C12Cl` (stereo not drawn) [Compound 4], the Percentage of control in the test on Botrytis cinerea [2] (50 ppm) and with Botrytis cinerea [2] (200 ppm) was 100% each time. The same compound had a Degree of severity with Sclerotinia sclerotiorum [3] of 100%. Besides, the Percentage of stand was found to be 96.7% in the test on Rhizoctonia solani [1] (250 ppm) and 100% with Rhizoctonia solani [1] (500 ppm).
